Experimental findings from BindingDB's records for doi:10.1016/S0960-894X(96)00248-X (1996) are described below.

A short description of this experiment: Inhibitory activity against gastrin receptor.
For the compound `Cc1cccc(NC(=O)NC2N=C(c3ccccc3)c3ccccc3N(CC(=O)NCCCC(=O)NCCSCc3csc(N=C(N)N)n3)C2=O)c1` (stereo not drawn) [N-[2-(2-Guanidino-thiazol-4-ylmethylsulfanyl)-ethyl]-4-{2-[2-oxo-5-phenyl-3-(3-m-tolyl-ureido)-2,3-dihydro-benzo[e][1,4]diazepin-1-yl]-acetylamino}-butyramide], the IC50 amounted to 0.19 µM.
Next, `Cc1cccc(NC(=O)NC2N=C(c3ccccc3)c3ccccc3N(CC(=O)NCC(=O)NCCSCc3csc(N=C(N)N)n3)C2=O)c1` (stereo not drawn) [N-{[2-(2-Guanidino-thiazol-4-ylmethylsulfanyl)-ethylcarbamoyl]-methyl}-2-[2-oxo-5-phenyl-3-(3-m-tolyl-ureido)-2,3-dihydro-benzo[e][1,4]diazepin-1-yl]-acetamide]: 0.37 µM; `Cc1cccc(NC(=O)NC2N=C(c3cccc(OCC(=O)NCC(=O)NCCSCc4csc(N=C(N)N)n4)c3)c3ccccc3N(C)C2=O)c1` (stereo not drawn) [N-{[2-(2-Guanidino-thiazol-4-ylmethylsulfanyl)-ethylcarbamoyl]-methyl}-2-{3-[1-methyl-2-oxo-3-(3-m-tolyl-ureido)-2,3-dihydro-1H-benzo[e][1,4]diazepin-5-yl]-phenoxy}-acetamide]: 0.012 µM.

In general, IC50 refers to the midpoint of a concentration-inhibition curve.
